We go through six molecules from publication PMC9596378, “Discovery and molecular basis of subtype-selective cyclophilin inhibitors” (Nature Chemical Biology, 2022).

Read-outs that look alike come from different tables or passages of the source.

The target of one data set is T1, PPIL1 (Homo sapiens, UniProt Q9Y3C6).
T1 construct: PPIL1 (UniProtKB Entry Q9Y3C6: residues 1–166); made in house; host or cells: E. coli BL21(DE3)
T1 sequence (Q9Y3C6 1-166): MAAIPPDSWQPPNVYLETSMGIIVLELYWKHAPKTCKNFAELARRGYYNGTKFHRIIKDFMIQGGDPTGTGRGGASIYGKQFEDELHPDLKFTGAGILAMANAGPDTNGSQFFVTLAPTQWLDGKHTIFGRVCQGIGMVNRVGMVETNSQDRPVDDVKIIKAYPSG
Description: Chymotrypsin coupled prolyl-isomerase assay. The data set is classed as biochemical. To be noted: wild-type PPIL1; read-out: Wild-Type Cyclophilin Prolyl Isomerase Inhibition IC50 Values, PPIL1.

The next data set deals with Cyp40 (Homo sapiens, UniProt Q08752). Description: Chymotrypsin coupled prolyl-isomerase assay. The method, then: (§1) Adapting a previously described protocol, with an Agilent Bravo Velocity 11 with a 384ST head, 90 µL assay buffer (25 mM HEPES pH 7.3, 100 mM NaCl, 0.01% Triton X-100) containing 5.28 nM cyclophilin was added into a flat, clear-bottom, black 384-well plate pre-chilled in a Corning CoolBox at 2–3 °C. Five microliters of compound pre-dissolved in 5% DMSO/assay buffer was then added to appropriate wells and incubated at 2–3 °C for 5 min. Five microliters of 0.5 mM α-chymotrypsin from bovine pancreas (Type II, lyophilized powder, Millipore-Sigma) in 20% 1 mM HCl/Assay Buffer was then added to each well and incubated at 2–3 °C for 5 min. The plate was then quickly transferred to a FLIPR Tetra High-Throughput Cellular Screening System (Molecular Devices). Using the internal liquid handling system of the FLIPR, 1 µL 0.5 mM Suc-AAPF-AMC (Chymotrypsin Substrate II, Millipore-Sigma) dissolved in 0.55 M LiCl/2,2,2-trifluoroethanol was added to each well, which was then mixed for 5 s, followed by immediate fluorescence measurements every 1 s for 330 s using a 360–380 nm excitation LED module and a 400–460 nm emission filter. Final concentrations of the plate include 5 nM cyclophilin, 0.25% DMSO, 25 µM α-chymotrypsin, 5 µM Suc-AAPF-AMC. Raw fluorescence data was analyzed by non-linear regression analysis with Prism v.9 by fitting one-phase association curves to each well. […] Rate constants calculated for each well (s^−1) were then normalized to substrate only (no prolyl-isomerase) and enzyme + substrate only controls. IC50 values were calculated as the value at which 50% inhibition was achieved on the non-linear regression fitted curve of each compound.

For another data set, the target named is CypD (Homo sapiens, UniProt P30405). Description: Chymotrypsin coupled prolyl-isomerase assay. The method, then:
as §1, with “Five” for “Adapting a previously described protocol, with an Agilent Bravo Velocity 11 with a 384ST head, 90 µL assay buffer (25 mM HEPES pH 7.3, 100 mM NaCl, 0.01% Triton X-100) containing 5.28 nM cyclophilin was added into a flat, clear-bottom, black 384-well plate pre-chilled in a Corning CoolBox at 2–3 °C. Five”, “Final concentrations of the plate include 5 nM cyclophilin, 0.25% DMSO, 25 µM α-chymotrypsin, 5 µM Suc-AAPF-AMC.” left out, “controls.” for “controls. IC50 values were calculated as the value at which 50% inhibition was achieved on the non-linear regression fitted curve of each compound.”

A further data set concerns the target T2, CypE (Homo sapiens, UniProt Q9UNP9).
T2 construct: PPIE (UniProtKB Entry Q9UNP9: residues 131–301); host or cells: E. coli BL21(DE3)
Description: Chymotrypsin coupled prolyl-isomerase assay. The data set is classed as biochemical. To be noted: wild-type CypE; read-out: Wild-Type Cyclophilin Prolyl Isomerase Inhibition IC50 Values, CypE. The method, then: as §1

The target in another data set is T3, CypH (Homo sapiens, UniProt O43447).
T3 construct: PPIH (UniProtKB Entry O43447: residues 1–177); His6 with TEV site (2BT vector leader) (N); made in house; host or cells: E. coli BL21(DE3)
Description: Chymotrypsin coupled prolyl-isomerase assay. Format: biochemical. The method, then:
as §1

Another data set addresses T4, CypA (Homo sapiens, UniProt P62937).
T4 construct: PPIA (UniProtKB Entry P62937: residues 1–165); made in house; host or cells: E. coli BL21(DE3)
Description: Chymotrypsin coupled prolyl-isomerase assay. The data set is classed as biochemical. To be noted: wild-type CypA; read-out: Wild-Type Cyclophilin Prolyl Isomerase Inhibition IC50 Values, CypA. The method, then:
as §1

In the next data set the target is T5, CypG (Homo sapiens, UniProt Q13427).
T5 construct: PPIG (UniProtKB Entry Q13427: residues 1–179); His6 with thrombin site (pET28a LIC leader) (N); host or cells: E. coli BL21(DE3)
T5 sequence (Q13427 1-179): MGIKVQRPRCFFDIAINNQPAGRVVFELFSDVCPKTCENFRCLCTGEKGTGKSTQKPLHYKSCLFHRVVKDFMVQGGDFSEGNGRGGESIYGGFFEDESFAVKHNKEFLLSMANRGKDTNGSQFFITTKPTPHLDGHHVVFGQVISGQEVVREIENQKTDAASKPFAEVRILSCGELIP
Description: Chymotrypsin coupled prolyl-isomerase assay. Format: biochemical. To be noted: wild-type CypG; read-out: Wild-Type Cyclophilin Prolyl Isomerase Inhibition IC50 Values, CypG. The method, then: as §1

The next data set has as its target T6, CypC (Homo sapiens, UniProt P45877).
T6 construct: PPIC (UniProtKB Entry P45877: residues 24–212); host or cells: E. coli BL21(DE3)
Description: Chymotrypsin coupled prolyl-isomerase assay. Format: biochemical. The method, then: as §1

A further data set has as its target T7, CypB (Homo sapiens, UniProt P23284).
T7 construct: PPIB (UniProtKB Entry P23284: residues 34–216); His6 with TEV site (2BT vector leader) (N); made in house; host or cells: E. coli BL21(DE3)
Description: biochemical. To be noted: wild-type CypB; read-out: Wild-Type Cyclophilin Prolyl Isomerase Inhibition IC50 Values, CypB. The method, then: as §1

For another data set, the target named is T8, PPWD1 (Homo sapiens, UniProt Q96BP3).
T8 construct: PPWD1 (UniProtKB Entry Q96BP3: residues 473–646); host or cells: E. coli BL21(DE3)
T8 sequence (Q96BP3 473-646): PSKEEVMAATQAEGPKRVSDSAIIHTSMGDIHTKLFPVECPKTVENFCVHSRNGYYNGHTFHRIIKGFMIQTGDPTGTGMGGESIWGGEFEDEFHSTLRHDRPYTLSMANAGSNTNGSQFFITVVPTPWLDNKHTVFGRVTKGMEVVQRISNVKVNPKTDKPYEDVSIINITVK
Description: Chymotrypsin coupled prolyl-isomerase assay. Format: biochemical.

For a further data set, the target named is T9, NKTR (Homo sapiens, UniProt P30414).
T9 construct: NKTR (UniProtKB Entry P30414: residues 7–179); host or cells: E. coli BL21(DE3)
T9 sequence (P30414 7-179): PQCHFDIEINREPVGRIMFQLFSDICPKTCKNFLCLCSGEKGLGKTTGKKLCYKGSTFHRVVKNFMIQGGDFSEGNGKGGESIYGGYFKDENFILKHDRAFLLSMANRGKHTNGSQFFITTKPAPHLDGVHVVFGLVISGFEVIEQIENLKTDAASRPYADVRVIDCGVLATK
Description: Chymotrypsin coupled prolyl-isomerase assay. The data set is classed as biochemical. To be noted: wild-type NKTR; read-out: Wild-Type Cyclophilin Prolyl Isomerase Inhibition IC50 Values, NKTR.

Where [1] appears, read: Wild-Type Cyclophilin Prolyl Isomerase Inhibition IC50 Values, Cyp40, wild-type Cyp40.
[2] abbreviates: Wild-Type Cyclophilin Prolyl Isomerase Inhibition IC50 Values, CypD, wild-type CypD.
Where [3] appears, read: wild-type CypH, read-out: Wild-Type Cyclophilin Prolyl Isomerase Inhibition IC50 Values, CypH.
Setting [4] is: wild-type CypC, read-out: Wild-Type Cyclophilin Prolyl Isomerase Inhibition IC50 Values, CypC.
The mark [5] stands for this setting: prolyl-isomerase inhibition, 5 nM cyclophilin, read-out: IC50 PPWD1.
Setting [6] is: wild-type PPWD1, read-out: Wild-Type Cyclophilin Prolyl Isomerase Inhibition IC50 Values, PPWD1.
The mark [7] stands for this setting: read-out: Wild-Type Cyclophilin Prolyl Isomerase Inhibition IC50 Values, Cyp40, wild-type Cyp40.
[8] abbreviates: read-out: IC50 CypD, prolyl-isomerase inhibition, 5 nM cyclophilin, Suc-AAPF-AMC, mean±s.e.m. of 3 technical replicates (B52, B53, C3A wild-type: mean±s.d. of 4 independent replicates).
[9] abbreviates: prolyl-isomerase inhibition, 5 nM cyclophilin, read-out: IC50 CypH.

Cyp40, sequence (Q08752 1-183): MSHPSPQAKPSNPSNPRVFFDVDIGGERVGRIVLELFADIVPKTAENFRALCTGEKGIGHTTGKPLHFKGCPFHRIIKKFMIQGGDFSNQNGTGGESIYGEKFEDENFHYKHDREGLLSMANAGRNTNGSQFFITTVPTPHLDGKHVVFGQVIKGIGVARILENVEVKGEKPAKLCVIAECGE
CypD, sequence (P30405 45-207): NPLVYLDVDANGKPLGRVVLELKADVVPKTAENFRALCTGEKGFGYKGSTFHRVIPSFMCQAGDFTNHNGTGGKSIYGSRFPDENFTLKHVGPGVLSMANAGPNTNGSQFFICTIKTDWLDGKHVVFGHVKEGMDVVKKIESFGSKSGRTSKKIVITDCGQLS
T4 sequence (P62937 whole entry, the tested form may be a part): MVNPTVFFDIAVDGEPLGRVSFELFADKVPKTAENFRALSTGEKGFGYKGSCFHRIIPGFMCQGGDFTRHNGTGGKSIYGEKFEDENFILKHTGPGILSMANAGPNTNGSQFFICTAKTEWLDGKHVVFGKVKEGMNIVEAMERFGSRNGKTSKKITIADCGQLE
T6 sequence (P45877 24-212): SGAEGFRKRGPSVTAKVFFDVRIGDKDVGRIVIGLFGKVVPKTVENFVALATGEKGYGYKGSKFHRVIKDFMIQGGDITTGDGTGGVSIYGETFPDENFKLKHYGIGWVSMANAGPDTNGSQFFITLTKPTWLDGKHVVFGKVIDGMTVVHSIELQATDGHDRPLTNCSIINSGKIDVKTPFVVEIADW
T2 sequence (Q9UNP9 131-301): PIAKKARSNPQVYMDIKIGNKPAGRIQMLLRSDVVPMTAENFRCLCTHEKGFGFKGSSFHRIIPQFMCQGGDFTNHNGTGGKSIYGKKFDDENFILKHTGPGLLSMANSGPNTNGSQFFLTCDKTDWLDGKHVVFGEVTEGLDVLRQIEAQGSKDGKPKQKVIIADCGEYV
T3 sequence (O43447 whole entry, the tested form may be a part): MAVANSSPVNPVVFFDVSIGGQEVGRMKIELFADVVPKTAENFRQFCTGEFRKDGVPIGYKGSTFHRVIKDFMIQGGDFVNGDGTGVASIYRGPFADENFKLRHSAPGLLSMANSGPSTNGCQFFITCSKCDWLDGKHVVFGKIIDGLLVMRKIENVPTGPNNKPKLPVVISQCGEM
T7 sequence (P23284 34-216): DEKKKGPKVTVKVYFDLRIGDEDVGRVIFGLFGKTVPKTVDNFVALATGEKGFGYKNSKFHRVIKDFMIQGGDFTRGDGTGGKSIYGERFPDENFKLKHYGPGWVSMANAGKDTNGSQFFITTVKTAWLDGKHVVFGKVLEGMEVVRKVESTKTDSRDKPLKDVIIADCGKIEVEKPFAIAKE
Description for NKTR: (§2) Adapting a previously described protocol[51], with an Agilent Bravo Velocity 11 with a 384ST head, 90 µL assay buffer (25 mM HEPES pH 7.3, 100 mM NaCl, 0.01% Triton X-100) containing 5.28 nM cyclophilin was added into a flat, clear-bottom, black 384-well plate pre-chilled in a Corning CoolBox at 2–3 °C. Five microliters of compound pre-dissolved in 5% DMSO/assay buffer was then added to appropriate wells and incubated at 2–3 °C for 5 min. Five microliters of 0.5 mM α-chymotrypsin from bovine pancreas (Type II, lyophilized powder, Millipore-Sigma) in 20% 1 mM HCl/Assay Buffer was then added to each well and incubated at 2–3 °C for 5 min. […] Using the internal liquid handling system of the FLIPR, 1 µL 0.5 mM Suc-AAPF-AMC (Chymotrypsin Substrate II, Millipore-Sigma) dissolved in 0.55 M LiCl/2,2,2-trifluoroethanol was added to each well, which was then mixed for 5 s, followed by immediate fluorescence measurements every 1 s for 330 s using a 360–380 nm excitation LED module and a 400–460 nm emission filter. Final concentrations of the plate include 5 nM cyclophilin, 0.25% DMSO, 25 µM α-chymotrypsin, 5 µM Suc-AAPF-AMC. Raw fluorescence data was analyzed by non-linear regression analysis with Prism v.9 by fitting one-phase association curves to each well. Analyses were halted after the calculated maximum fluorescent value owing to observed fluorescent bleaching during the sustained fluorescent plateau. Rate constants calculated for each well (s^−1) were then normalized to substrate only (no prolyl-isomerase) and enzyme + substrate only controls. IC50 values were calculated as the value at which 50% inhibition was achieved on the non-linear regression fitted curve of each compound.
Description for PPIL1: as §2
Description for PPWD1: Five microliters of compound pre-dissolved in 5% DMSO/assay buffer was then added to appropriate wells and incubated at 2–3 °C for 5 min. Five microliters of 0.5 mM α-chymotrypsin from bovine pancreas (Type II, lyophilized powder, Millipore-Sigma) in 20% 1 mM HCl/Assay Buffer was then added to each well and incubated at 2–3 °C for 5 min. The plate was then quickly transferred to a FLIPR Tetra High-Throughput Cellular Screening System (Molecular Devices). Using the internal liquid handling system of the FLIPR, 1 µL 0.5 mM Suc-AAPF-AMC (Chymotrypsin Substrate II, Millipore-Sigma) dissolved in 0.55 M LiCl/2,2,2-trifluoroethanol was added to each well, which was then mixed for 5 s, followed by immediate fluorescence measurements every 1 s for 330 s using a 360–380 nm excitation LED module and a 400–460 nm emission filter. […] Raw fluorescence data was analyzed by non-linear regression analysis with Prism v.9 by fitting one-phase association curves to each well. Analyses were halted after the calculated maximum fluorescent value owing to observed fluorescent bleaching during the sustained fluorescent plateau. Rate constants calculated for each well (s^−1) were then normalized to substrate only (no prolyl-isomerase) and enzyme + substrate only controls.

For the molecule `NCCOCCNC(=O)C1CCNC(=O)C=CC(=O)N2CCCC(C2)C(=O)NC(Cc2ccc(C(=O)c3ccccc3)cc2)C(=O)NCc2ccccc2CC(=O)N1` (centres unmarked) [Compound A14], the IC50 at PPIL1 was 10 µM; against Cyp40 (setting [1]), 3 µM; at CypD (setting [2]), 3.8 µM; on CypE it was 13 µM; at CypH (setting [3]), greater than 100 µM; on CypA it was 19 µM. Further, the IC50 was greater than 100 µM on CypG; 9 µM at CypC (setting [4]); 2.7 µM on CypB; roughly 100 µM on PPWD1 (setting [5]); 100 µM at PPWD1 (setting [6]); greater than 100 µM on NKTR.

Turning to `CC12CCCN(C1)C(=O)C=CC(=O)NCCC(C(=O)NCCOCCN)NC(=O)Cc1ccccc1CNC(=O)C(Cc1ccco1)NC2=O` (centres unmarked) [Compound A25], the IC50 at PPIL1 is 11 µM; at Cyp40 (setting [1]), 2.6 µM; against CypD (setting [2]), 3.6 µM; at CypE it was 14 µM; on CypH (setting [3]) it was 24 µM; on CypA, 16 µM. Further, the IC50 on CypG turned out to be 1.9 µM; on CypC (setting [4]) it was 6.5 µM; at CypB it was 0.9 µM; at PPWD1 (setting [6]), 40 µM; on NKTR, 8 µM.

`NCCOCCNC(=O)C1CCNC(=O)C=CC(=O)N2CCCC(Cc3ccccc3)(C2)C(=O)NC(Cc2ccco2)C(=O)NCc2ccccc2CC(=O)N1` (centres unmarked) [Compound A26]: the IC50 came to 0.6 µM on PPIL1; 0.4 µM at Cyp40 (setting [1]); 0.2 µM on CypD; 0.8 µM on CypE; 2.7 µM on CypH (setting [3]); 1.1 µM at CypA. The IC50 is 0.84 µM at CypG; 0.53 µM on CypC (setting [4]); 0.1 µM at CypB; 3.4 µM on PPWD1 (setting [6]); 4.2 µM on NKTR. The “increase of CypD potency relative to JOMBt” value at CypD was determined as 85 fold.

As for `CC(=O)c1ccc(-c2ccc(C[C@@H]3NC(=O)[C@]4(Cc5ccccc5)CCCN(C4)C(=O)/C=C/C(=O)NCC[C@@H](C(=O)NCCOCCN)NC(=O)Cc4ccccc4CNC3=O)cc2)cc1` [Compound B15], the IC50 at PPIL1 is 0.1 µM; at Cyp40 (setting [7]), 0.06 µM; on CypD (setting [8]), 0.038 µM; on CypE, 0.15 µM; on CypH (setting [9]), roughly 80 µM; at CypH (setting [3]), 80 µM. The IC50 on CypA was determined as 0.4 µM; on CypG it was 1.8 µM; at CypC (setting [4]), 0.38 µM; on CypB it was 0.08 µM; on PPWD1 (setting [6]) it was 0.88 µM; at NKTR, 4.9 µM. For the same molecule, the “preference for CypD over CypC and Cyp40” value at CypD is on record as 2- to 20 fold.

As for `NCCOCCNC(=O)[C@@H]1CCNC(=O)/C=C/C(=O)N2CCC[C@](Cc3ccccc3)(C2)C(=O)N[C@@H](Cc2ccc(-c3ccc(C(=O)O)cc3)cc2)C(=O)NCc2ccccc2CC(=O)N1` [Compound B20], the IC50 was 1.4 µM on PPIL1; 2.6 µM against Cyp40; 0.3 µM on CypD (setting [8]); 1.6 µM on CypE; greater than 100 µM at CypH (setting [3]); 3.1 µM on CypA. Besides, the IC50 was greater than 100 µM at CypG; roughly 60 µM on CypC (prolyl-isomerase inhibition, 5 nM cyclophilin, read-out: IC50 CypC); 60 µM at CypC (setting [4]); 2 µM at CypB; greater than 100 µM on PPWD1 (setting [6]); greater than 100 µM on NKTR. The “preference for CypD over CypC and Cyp40” value at CypD is “at least ninefold”.

`NCCOCCNC(=O)[C@@H]1CCNC(=O)/C=C/C(=O)N2CCC[C@](Cc3ccccc3)(C2)C(=O)N[C@@H](Cc2ccc(-c3ccc(CC(=O)O)cc3)cc2)C(=O)NCc2ccccc2CC(=O)N1` [Compound B22]: the IC50 on PPIL1 was 0.6 µM; on Cyp40 (setting [7]) it was 1 µM; on CypD (setting [8]), 0.04 µM; at CypE, 0.13 µM; on CypH (setting [9]) it was roughly 100 µM; at CypH (setting [3]) it was 100 µM. The IC50 on CypA was 0.7 µM; on CypG it was 10 µM; on CypC (setting [4]), 14 µM; at CypB, 0.23 µM; at PPWD1 (setting [5]) it was roughly 50 µM; at PPWD1 (setting [6]) it was 50 µM. Also, the IC50 at NKTR was greater than 100 µM.

As usually defined, the IC50 is the concentration that gives 50% inhibition.
